Results published in publication PMC3691274, “Unraveling the Activation Mechanism of the Potato Tuber ADP-Glucose Pyrophosphorylase” (PLoS ONE, 2013).

Assays:
[1] = biological target: T1, potato tuber ADP-Glc PPase (StuS/StuL) (Solanum tuberosum, UniProt P23509+Q00081); details: read-out: A 0.5; allosteric activator; 1.5 mM ATP, 0.5 mM [14C]Glc-1P, 7 mM MgCl2, 50 mM HEPPS pH 8.0, 37°C
T1 sequence (P23509 71-521 limits assumed): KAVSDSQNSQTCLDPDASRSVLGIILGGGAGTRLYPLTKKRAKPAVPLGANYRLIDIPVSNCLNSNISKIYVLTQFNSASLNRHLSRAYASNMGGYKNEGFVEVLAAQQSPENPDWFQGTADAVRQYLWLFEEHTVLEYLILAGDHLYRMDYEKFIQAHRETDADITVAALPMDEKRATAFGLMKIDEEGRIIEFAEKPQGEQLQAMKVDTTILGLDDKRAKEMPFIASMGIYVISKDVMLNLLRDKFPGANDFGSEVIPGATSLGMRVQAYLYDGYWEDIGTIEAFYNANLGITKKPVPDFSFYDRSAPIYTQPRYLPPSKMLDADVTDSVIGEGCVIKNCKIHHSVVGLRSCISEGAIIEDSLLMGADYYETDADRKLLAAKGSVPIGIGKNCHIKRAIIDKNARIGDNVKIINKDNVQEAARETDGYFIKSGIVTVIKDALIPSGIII
T1 sequence (Q00081 7-470): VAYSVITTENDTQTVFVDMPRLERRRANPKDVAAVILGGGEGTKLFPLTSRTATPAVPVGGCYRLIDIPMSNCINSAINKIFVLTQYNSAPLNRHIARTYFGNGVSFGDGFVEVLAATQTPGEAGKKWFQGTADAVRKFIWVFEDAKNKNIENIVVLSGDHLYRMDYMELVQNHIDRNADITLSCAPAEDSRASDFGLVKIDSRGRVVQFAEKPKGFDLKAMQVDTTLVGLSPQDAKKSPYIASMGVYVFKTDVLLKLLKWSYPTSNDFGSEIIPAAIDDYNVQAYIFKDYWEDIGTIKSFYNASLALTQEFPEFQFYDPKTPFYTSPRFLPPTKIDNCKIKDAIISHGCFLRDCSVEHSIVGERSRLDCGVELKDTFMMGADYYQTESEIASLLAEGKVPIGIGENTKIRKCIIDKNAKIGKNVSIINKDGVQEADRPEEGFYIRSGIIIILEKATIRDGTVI

[2] = biological target: T2, Anabaena ADP-Glc PPase (Ana WT) (Nostoc sp. PCC 7120 = FACHB-418, UniProt P30521); assay: colorimetric Pi release assay (PPi hydrolysed by pyrophosphatase), Hill fit; type: biochemical; details: read-out: A 0.5
T2 construct: gene glgC; recombinant from plasmid pAnaE3a in E. coli AC70R1-504, purified, homotetramer, no tag mentioned
Description: (§1) colorimetric Pi release assay (PPi hydrolysed by pyrophosphatase), Hill fit on Anabaena ADP-Glc PPase (Ana WT)

Anabaena ADP-Glc PPase [3] = biological target: T3, Anabaena ADP-Glc PPase (Nostoc sp. PCC 7120 = FACHB-418, UniProt P30521, Q58A); assay: as above; type: biochemical; details: read-out: A 0.5
T3 construct: gene glgC; recombinant from plasmid pAnaE3a in E. coli AC70R1-504, purified, homotetramer, no tag mentioned
Description: as §1

Anabaena ADP-Glc PPase [4] = biological target: T4, Anabaena ADP-Glc PPase (Nostoc sp. PCC 7120 = FACHB-418, UniProt P30521, W96A); assay: as above; type: biochemical; details: read-out: A 0.5
T4 construct: gene glgC; recombinant from plasmid pAnaE3a in E. coli AC70R1-504, purified, homotetramer, no tag mentioned
Description: as §1

T2 sequence (P30521 whole entry): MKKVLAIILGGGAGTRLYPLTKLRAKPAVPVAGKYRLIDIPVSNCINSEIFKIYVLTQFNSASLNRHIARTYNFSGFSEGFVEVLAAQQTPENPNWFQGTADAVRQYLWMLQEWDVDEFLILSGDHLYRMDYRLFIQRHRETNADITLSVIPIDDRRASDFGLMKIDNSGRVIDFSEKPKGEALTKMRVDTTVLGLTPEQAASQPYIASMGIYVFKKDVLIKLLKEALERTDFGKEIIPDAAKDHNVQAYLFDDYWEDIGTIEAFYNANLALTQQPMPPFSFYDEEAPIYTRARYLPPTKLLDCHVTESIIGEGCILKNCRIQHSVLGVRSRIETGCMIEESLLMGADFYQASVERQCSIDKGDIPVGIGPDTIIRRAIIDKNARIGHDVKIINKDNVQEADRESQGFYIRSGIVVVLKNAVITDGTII
T3 sequence (P30521 whole entry Q58A): as the sequence (P30521 whole entry) above, with Q58A counted along it
T4 sequence (P30521 whole entry W96A): as the sequence (P30521 whole entry) above, with W96A counted along it

## O=C(O)[C@H](O)COP(=O)(O)O [3-PGA, 3-phosphoglycerate]
[1]
  EC50: 54 ± 4 µM
[2]
  EC50: 76 ± 4 µM
Anabaena ADP-Glc PPase [3]
  EC50: 95 ± 8 µM
Anabaena ADP-Glc PPase [4]
  EC50: 83 ± 8 µM
